In article PMC5471521, “Novel selective β1-adrenoceptor antagonists for concomitant cardiovascular and respiratory disease” (The FASEB Journal, 2017):
Where two headings read alike, the source gives them in different places.

Key:
5-HT2A = 5-HT2A (Homo sapiens, UniProt P28223); assay: Cerep receptor radioligand-binding assay; settings: for Ki: concentration-response, Cheng-Prusoff
Procedure: […]; Ki (inhibition constant) was calculated by using the Cheng-Prusoff equation from the mean of duplicate determinations in cell-based receptor radioligand-binding assays. Cerep in vitro pharmacology profiling service was used (see the Supplemental Data for a list of the assays used).

hERG channels = hERG channels (Homo sapiens, UniProt Q12809); assay: hERG automated patch-clamp electrophysiology
Sequence of hERG channels (Q12809 whole entry): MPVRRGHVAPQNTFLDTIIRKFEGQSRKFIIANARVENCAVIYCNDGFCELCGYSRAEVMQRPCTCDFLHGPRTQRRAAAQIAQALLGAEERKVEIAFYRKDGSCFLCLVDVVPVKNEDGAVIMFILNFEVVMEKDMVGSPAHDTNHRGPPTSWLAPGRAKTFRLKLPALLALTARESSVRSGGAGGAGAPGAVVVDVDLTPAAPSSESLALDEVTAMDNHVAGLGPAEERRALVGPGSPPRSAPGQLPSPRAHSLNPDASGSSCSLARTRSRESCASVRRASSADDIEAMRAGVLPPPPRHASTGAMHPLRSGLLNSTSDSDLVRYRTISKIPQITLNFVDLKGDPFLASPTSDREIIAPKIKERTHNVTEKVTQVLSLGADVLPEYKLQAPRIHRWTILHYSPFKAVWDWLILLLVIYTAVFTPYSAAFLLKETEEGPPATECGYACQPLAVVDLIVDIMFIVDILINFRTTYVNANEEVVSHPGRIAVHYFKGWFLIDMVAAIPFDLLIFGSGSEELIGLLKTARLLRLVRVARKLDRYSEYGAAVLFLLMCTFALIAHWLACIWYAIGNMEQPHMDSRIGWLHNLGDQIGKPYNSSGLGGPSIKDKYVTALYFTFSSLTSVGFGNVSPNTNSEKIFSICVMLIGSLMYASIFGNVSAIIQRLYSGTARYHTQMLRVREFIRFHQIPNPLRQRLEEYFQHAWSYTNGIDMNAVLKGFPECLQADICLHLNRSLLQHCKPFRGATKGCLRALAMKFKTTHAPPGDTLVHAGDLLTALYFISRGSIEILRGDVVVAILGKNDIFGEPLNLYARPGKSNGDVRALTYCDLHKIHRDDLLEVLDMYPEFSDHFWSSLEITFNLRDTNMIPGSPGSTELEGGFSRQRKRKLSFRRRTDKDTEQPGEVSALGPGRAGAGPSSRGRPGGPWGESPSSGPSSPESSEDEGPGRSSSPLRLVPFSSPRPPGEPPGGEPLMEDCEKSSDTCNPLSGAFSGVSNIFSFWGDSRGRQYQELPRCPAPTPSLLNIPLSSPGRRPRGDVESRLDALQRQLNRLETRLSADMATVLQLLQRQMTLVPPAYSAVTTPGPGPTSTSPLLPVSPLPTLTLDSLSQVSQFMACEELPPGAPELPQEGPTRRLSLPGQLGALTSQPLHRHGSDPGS
Procedure: In addition, the potential of the compound to inhibit hERG channels was tested by using an automated patch-clamp electrophysiological assay (BioFocus, Cambridge, United Kingdom; using the Precision hERG-HEK recombinant cell line from on an Ion Works Quattro automated electrophysiology platform; Millipore, Billerica, MA, USA).

human β1-AR [1] = biological target: T1, human β1-AR (Homo sapiens, UniProt P08588); assay: 3H-CGP12177 whole-cell binding in CHO-β1 cells; settings: for Kd: CHO-β1 cells, mean ± SEM, read-out: Human β1-AR Log Kd (converted); for SI1a (in vitro binding) = Kd,β2/Kd,β1: Kd values from 3H-CGP12177 whole-cell binding, Table 1
T1 construct: expressed in transfected cells
T1 sequence (P08588 whole entry): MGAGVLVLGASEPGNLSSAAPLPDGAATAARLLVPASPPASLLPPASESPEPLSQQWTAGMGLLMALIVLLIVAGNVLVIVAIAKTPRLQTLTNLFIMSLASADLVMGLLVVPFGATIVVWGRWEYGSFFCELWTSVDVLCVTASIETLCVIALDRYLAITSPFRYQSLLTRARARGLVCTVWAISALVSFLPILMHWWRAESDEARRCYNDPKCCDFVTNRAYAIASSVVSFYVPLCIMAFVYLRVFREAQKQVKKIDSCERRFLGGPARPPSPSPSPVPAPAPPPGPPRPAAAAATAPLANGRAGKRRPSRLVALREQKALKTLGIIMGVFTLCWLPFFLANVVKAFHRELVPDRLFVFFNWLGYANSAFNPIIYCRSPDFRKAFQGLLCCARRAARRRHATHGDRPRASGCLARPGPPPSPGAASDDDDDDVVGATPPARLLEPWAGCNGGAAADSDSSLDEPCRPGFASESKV

CYP3A4 = biological target: T2, CYP3A4 (Homo sapiens, UniProt P08684); assay: P450 in vitro clearance, recombinant Supersomes; type: in vitro ADME; settings: 2 μM, hydrochloride salts used
T2 construct: purchased BD Biosciences
T2 sequence (P08684 whole entry): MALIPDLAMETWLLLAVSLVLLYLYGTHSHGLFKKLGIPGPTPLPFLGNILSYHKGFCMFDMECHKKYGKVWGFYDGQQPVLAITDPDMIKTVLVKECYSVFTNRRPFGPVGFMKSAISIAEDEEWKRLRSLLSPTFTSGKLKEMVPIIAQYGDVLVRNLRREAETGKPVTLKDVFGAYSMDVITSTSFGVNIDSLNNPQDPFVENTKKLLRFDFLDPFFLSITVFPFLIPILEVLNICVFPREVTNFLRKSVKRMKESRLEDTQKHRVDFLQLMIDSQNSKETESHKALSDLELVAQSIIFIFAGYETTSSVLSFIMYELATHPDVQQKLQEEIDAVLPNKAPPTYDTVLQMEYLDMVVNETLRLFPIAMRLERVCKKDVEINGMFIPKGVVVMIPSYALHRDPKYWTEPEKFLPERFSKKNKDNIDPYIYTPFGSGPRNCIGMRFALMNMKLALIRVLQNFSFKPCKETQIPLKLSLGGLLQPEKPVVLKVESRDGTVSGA
Procedure: NDD-713.HCl and -825.HCl (2 μM) and cytochrome P450 (P450) reference substrates (see Supplemental Data for full details) were incubated (37°C) with selected recombinant human P450 isoforms (CYP1A2, CYP2A6, CYP2B6, CYP2C8, CYP2C9, CYP2C19, CYP2D6 CYP2E1, and CYP3A4) in heterologously expressed P450 Supersomes (BD Biosciences) that were suspended in […] Tris-HCl buffer (pH 7.4; for CYP2C9) or 100 mM phosphate buffer (pH 7.4; for the other isoforms) at final P450 concentrations of 85 pmol/ml. Reactions were initiated by additions of an NADPH-regenerating system and quenched at time points over 60 min (reference probes) or 120 min (test compounds) by acetonitrile. Quenched samples were centrifuged and supernatants were collected. NDD-713, -825, and probe metabolites were determined by UPLC-MS relative to calibration standards prepared in quenched matrix, and %substrate that remained was calculated relative to the initial sample concentration. The %substrate that remained vs. time was fitted to exponential decay functions to determine the pseudo first-order rate constant (k/min) for substrate depletion. These were normalized to P450 concentrations (pmol/ml) to obtain in vitro CLint values: CLint, in vitro (μl/min/pmol P450) = [k (min^−1)/P450 concentration […]] × 1000. Studies were carried out by CDCO.

[2] = Aqueous solubility by nephelometry; type: physicochemical; settings: kinetic from dmso stock
Procedure: NDD-713.HCl and -825.HCl were added to either aqueous phosphate buffer (pH 6.5) or 0.01 M aqueous HCl (pH ∼2) at final DMSO concentrations of 1%. Samples were analyzed by nephelometry to determine solubility ranges ([48]). Studies were carried out by the Centre for Drug Candidate Optimisation (CDCO; Monash University, Melbourne, VIC, Australia).

[3] = Protein binding by ultracentrifugation, rat plasma; type: in vitro ADME; settings: male, Sprague-Dawley, read-out: fu rat plasma
Procedure: (§1) Protein binding of 1 µM NDD-713.HCl and -825.HCl in human and rat plasma, as well as human liver microsomes, was assessed by using the ultracentrifugation technique. Frozen human plasma (Australian Red Cross Blood Service, Melbourne, VIC, Australia) and rat plasma (male Sprague-Dawley rats; Charles River, Margate, Kent, United Kingdom) were thawed at 37°C. Human liver microsomes (XenoTech) were suspended in 0.1 M phosphate buffer (pH 7.4) at protein concentrations of 0.4 mg/ml. Samples were collected immediately as stability reference controls. Spiked plasma samples (but not microsome samples) were incubated at 37°C for 1 h. […] NDD-713.HCl and -825.HCl concentrations of noncentrifuged matrix and protein-free supernatant were determined by UPLC-MS relative to calibration standards prepared in the respective matrices. Total concentration (Ctotal) was the average measured concentration in […] samples maintained at 37°C, and unbound concentration (Cunbound) was the average measured concentration in protein-free supernatants from centrifuged samples (n = 3). The compound unbound fraction (fu) was calculated: fu = Cunbound/Ctotal. Compound degradation was assessed by comparing concentrations in noncentrifuged plasma samples that were incubated at 37°C with concentrations measured in the t = 0 noncentrifuged samples. […]

HepG2 cells = assay: HepG2 cytotoxicity (CellTiter-Glo); type: cell-based, human; settings: 24 h, even at the limits of aqueous solubility
Procedure: Human hepatocyte carcinoma cells (HepG2; European Collection of Cell Cultures, Salisbury, United Kingdom) were grown in accordance with their guidelines by using DMEM. Cells at a density of 30,000 cells/well in 96-well plates were incubated overnight (37°C, 5% CO2 atmosphere). Medium was then removed and replaced with DMEM that contained control or compounds (1, 10, and 100 μM; n = 2 per concentration) for 24 h before addition of 100 μl/well of CellTiter-Glo Reagent (Promega, Madison, WI, USA) for ATP measurement and shaken to induce cell lysis. Luminescence was quantified on an AnalystAD plate-reader (Molecular Devices, Sunnyvale, CA, USA). Thioridizine (known HepG2 cytotoxicity) was used as positive control. Study was carried out by BioFocus DPI (Saffron Walden, United Kingdom).

human β1-AR [4] = biological target: T1, human β1-AR; assay: 3H-cAMP accumulation agonist response in CHO-β1 cells; type: cell-based; settings: agonist mode
Procedure: (§2) Confluent cells were examined (24-well plates, 5 h incubation at 37°C) as described in Baker ([45]). Antagonist Kd values were calculated from a rightward shift of the agonist concentration response curve by using the Gaddum equation as previously described ([46]).

human β3-AR = biological target: T3, human β3-AR (Homo sapiens, UniProt P13945); assay: Antagonism of cimaterol-induced 3H-cAMP accumulation in CHO-β3 cells; type: cell-based; settings: cimaterol agonist, mean ± SEM, read-out: Log Kd,β3 (converted)
T3 construct: expressed in transfected cells
T3 sequence (P13945 whole entry): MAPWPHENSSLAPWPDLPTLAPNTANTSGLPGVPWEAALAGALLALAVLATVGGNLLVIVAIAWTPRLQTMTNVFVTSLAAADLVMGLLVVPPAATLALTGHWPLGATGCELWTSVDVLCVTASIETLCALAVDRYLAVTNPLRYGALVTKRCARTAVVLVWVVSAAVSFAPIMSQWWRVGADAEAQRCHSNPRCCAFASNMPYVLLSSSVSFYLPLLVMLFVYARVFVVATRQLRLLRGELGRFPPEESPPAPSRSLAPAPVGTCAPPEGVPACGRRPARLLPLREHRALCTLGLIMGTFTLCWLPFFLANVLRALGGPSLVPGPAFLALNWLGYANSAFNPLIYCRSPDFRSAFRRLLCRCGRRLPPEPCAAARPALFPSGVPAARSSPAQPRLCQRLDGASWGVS
Procedure: as §2

[5] = Protein binding by ultracentrifugation, human liver microsomes; type: in vitro ADME; settings: pH 7.4, 0.4 mg/ml protein, read-out: fu human liver microsomes
Procedure: as §1

[6] = 0.01 M aqueous HCl, simulated gastric fluid, pH 2.0, hydrochloride salts used, read-out: Aqueous solubility Saq at pH 2.0
[7] = aqueous phosphate buffer, aqueous buffer, pH 6.5, hydrochloride salts used, read-out: Aqueous solubility Saq at pH 6.5

Sequence of 5-HT2A (P28223 whole entry): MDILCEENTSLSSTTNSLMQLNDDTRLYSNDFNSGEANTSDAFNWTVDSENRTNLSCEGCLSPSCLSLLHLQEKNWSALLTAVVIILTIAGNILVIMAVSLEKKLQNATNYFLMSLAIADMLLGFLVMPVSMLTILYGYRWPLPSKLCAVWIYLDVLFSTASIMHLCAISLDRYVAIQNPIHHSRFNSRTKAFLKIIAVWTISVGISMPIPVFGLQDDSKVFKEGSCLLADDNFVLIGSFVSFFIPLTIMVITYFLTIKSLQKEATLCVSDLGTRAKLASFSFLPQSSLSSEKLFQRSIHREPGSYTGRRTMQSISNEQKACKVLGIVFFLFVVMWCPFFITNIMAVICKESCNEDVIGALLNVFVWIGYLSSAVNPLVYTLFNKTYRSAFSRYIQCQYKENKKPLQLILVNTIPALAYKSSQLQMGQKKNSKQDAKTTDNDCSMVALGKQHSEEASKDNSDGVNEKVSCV

Structure (SMILES) | β1-selectivity over the 5-HT2A receptor (5-HT2A) [fold] | Ki (5-HT2A) [µM] | IC50 (hERG channels) [µM] | Kd (human β1-AR [1]) [µM] | SI1a (in vitro binding) = Kd,β2/Kd,β1 (human β1-AR [1]) | P450 in vitro clearance CLint, CYP3A4 (CYP3A4) [μl/min/pmol P450] | solubility [2, 6] [µg/mL] | solubility [2, 7] [µg/mL] | fraction unbound at 1 h, 1 µM [3] | Cytotoxic effects in HepG2 cell viability assay (HepG2 cells) | Maximum 3H-cAMP response relative to isoprenaline (human β1-AR [4]) | Kd (human β3-AR) [µM] | fraction unbound at 4.2 h, 1 µM [5] | Human β1 vs. β2 selectivity Kd,β2/Kd,β1 (human β1-AR [1]; from 3H-CGP12177 whole-cell binding)
O=C1NCc2cc(OCCNC[C@H](O)COc3ccc4c(c3)OC[C@@H](COCC3CC3)O4)ccc21 [NDD-825] | 1115 | 5.8 | > 10 | 0.00525 | 1023 | 0.17 | > 100 | 50 to 100 | 0.11 | no cytotoxic effects | No ^3H-cAMP responses were observed | 1.91 | 0.63 | 
NC(=O)c1ccc(OCCNC[C@H](O)COc2ccc3c(c2)OC[C@@H](COCC2CC2)O3)cc1 [NDD-713] | 510 | 7.7 | > 10 | 0.0151 | 589 | 0.07 | > 100 | 25 to 50 | 0.16 | no cytotoxic effects | No ^3H-cAMP responses were observed | 3.39 | 0.67 | 589
